Experimental data as given in patent US6384045B1, “Tricyclic and tetracyclic pyrones” (Kansas State University Research Foundation, priority 1997, dated 2002).
“Also recorded” adds a separate entry of the source.

Assays:
L1210 leukemic cells = experiment: Inhibition of other macromolecule synthesis (RNA and protein synthesis); assay type: cell-based
[1] = molecular target: acetylcholinesterase (AChE) (UniProt O42275); assay type: biochemical, electric eel; fetal bovine serum; conditions: read-out: AChE inhibition constant Ki ± std. error; 30° C., pH 8.0
Method: Acetylcholinesterase Assay and Inhibition Kinetics: Tricyclic pyrones of this invention were tested for inhibition of AChE. […] Reactions were carried out at 30° C. in 0.1 M sodium phosphate buffer at pH 8.0 in the presence of […] and 3.3×10^−4 M 3-carboxy-4-nitrophenyl disulfide. Aliquots of incubating mixtures containing enzyme alone, or enzyme in the presence of each carbamate, were withdrawn at selected time intervals and assayed for enzyme activity in order to obtain kinetic data. From the kinetic data, inhibition and bimolecular rate constants were calculated by the equation: [formula]
in which kapp is the pseudo-first-order rate constant.

[2] = tested on: L1210 lymphoblastic leukemia cells; experiment: Inhibition of L1210 tumor cell growth in vitro (Coulter counter); assay type: cell-based, Murine; conditions: Mus musculus, L1210; 50 μM, 3 and 4 days in culture; read-out: inhibition of L1210 cell growth (% reduction of control cell numbers)
Method: Cells were plated at an initial density of 1×10^4 cells/0.5 ml/well in RPMI 1640 medium, containing 7.5% fortified bovine calf serum, and grown at 37° C. for 4 days in a humidified incubator in 5% CO2 in air. Cells were incubated in the presence or absence (^•, control) of 50 μM 3A (▪), 2D & 2E (□),3D & 3E (▴), 2B & 2C (Δ) 2A (♦), 3B & 3C (⋄), or 10 μM CPT (∘) and their density was monitored in triplicate every 24 h using a Coulter counter. Cells numbers are plotted on a logarithmic scale.
(§1) All solutions of tricyclic pyrone analogs were dissolved and diluted in 100% ethanol (ETOH), whereas CPT (Sigma Chemical Co., St. Louis, Mo.) solutions were prepared in 100% dimethyl sulfoxide (DMSO). Murine L1210 lymphoblastic leukemia cells, obtained from the American Type Culture Collection (Rockville, Md.), were maintained in continuous exponential growth by twice-a-week passage in RPMI 1640 medium supplemented with 7.5% fortified bovine calf serum (HyClone Laboratories, Inc., Logan, Utah). The cultures were incubated at 37° C. in a humidified atmosphere containing 5% CO2. All drugs were supplemented to the culture medium in 1- or 2 μl aliquots. The concentration of vehicle in the final incubation volume never exceeded 0.2-0.4%. […] Control cells incubated in the absence of drugs were similarly treated with vehicle only and, in every experiment, all incubates received the same volume of solvent.
For tumor cell growth, L1210 cells were resuspended in fresh serum-containing RPMI 1640 medium, plated at an initial density of 1×10^4 cells/0.5 ml, and incubated in 48-well Costar cell culture plates (Costar, Cambridge, Mass.). Cells were grown for 4 days in the presence or absence of drugs and their density was monitored every 24 h using a Coulter counter (Coulter Electronics, Ltd., Luton Beds, England). Data of all in vitro experiments were analyzed using Student's t-test with the level of significance set at P<0.05.

[3] = tested on: L1210 lymphoblastic leukemia cells; experiment: Inhibition of DNA synthesis (3H-thymidine incorporation) in L1210 cells in vitro; assay type: cell-based, Murine
Method: FIG. 1 illustrates a comparison of the effects of four new tricyclic pyrone derivatives and CPT on DNA synthesis in L1210 cells in vitro. About 2.53×10^6 cells suspended in 0.5 ml of RPMI 1640 medium were incubated at 37° C. for 90 minutes in the presence or absence (control) of the indicated concentrations of drugs. The cells were then pulse-labeled for an additional 30 minutes to determine the rate of ^3H-thymidine incorporation into DNA. DNA synthesis in vehicle-treated control cells was 43,956±4,569 cpm (100±11%). The blank value (1,241±99 cpm) for cells pulse-labeled for 0 minutes with 1 μCi of ^3H-thymidine has been subtracted from the results. Bars: means±SD (n=3).
as §1
For DNA synthesis, L1210 cells were resuspended in fresh serum-free RPMI 1640 medium at a density of about 2.5×10^6 cells/0.5 ml. The cells were incubated at 37° C. for 90 min in the presence or absence of drugs and then pulse-labeled for an additional 30 min with 1 μCi of [methyl-^3H]thymidine (51 Ci/mmol; Amersham Corp., Arlington Heights, Ill.). The incubations were terminated by the addition of 0.5 ml of 10% trichloroacetic acid (TCA). After holding on ice for 15 min, the acid-insoluble material was recovered over Whatman GF/A glass microfibre filters and washed thrice with 2 ml of 5% TCA and twice with 2 ml of 100% EtOH. After drying the filters, the radioactivity bound to the acid-precipitable material was determined by liquid scintillation counting in 10 ml of Bio-Safe NA (Research Products International Corp., Mount Prospect, Ill.).

[4] = tested on: T1, liver and intestinal microsomal ACAT; experiment: Inhibition of liver and intestinal microsomal ACAT activity; assay type: biochemical; conditions: using literature IC50 of pyripyropene as standard
T1 construct: other: 100 μM; other: 44 nM; other: 50 μM
Method: . Microsomes were prepared from liver and intestinal mucosal scrapings by sequential centrifugation and in vitro ACAT activity assays were done according to the method of Billheimer (Billheimer, J. T. (1985), “Cholesterol acyltransferase,” In Methods in Enzymology 111:286-293). Briefly, 100 μg microsomal protein, 22 μg BSA, and 52 nmol cholesterol and the synthesized drug in 5 μL DMSO were preincubated for 30 minutes at 37° C. in a phosphate buffer (200 μL total volume). After 30 minutes, 1 nmol [^14C]oleoyl-CoA was added as substrate and incubated for an additional 20 minutes. The reaction was stopped with the addition of 1 mL ethanol and lipids were extracted with hexane. Cholesteryl [^14C]oleate formation was quantified by thin-layer chromatography and data are expressed as percent inhibition of ACAT activity (pmol/μg protein per minute) compared to a control sample incubated with no drug. All samples were run in duplicate. […]

acetylcholinesterase (AChE), sequence (O42275 whole entry): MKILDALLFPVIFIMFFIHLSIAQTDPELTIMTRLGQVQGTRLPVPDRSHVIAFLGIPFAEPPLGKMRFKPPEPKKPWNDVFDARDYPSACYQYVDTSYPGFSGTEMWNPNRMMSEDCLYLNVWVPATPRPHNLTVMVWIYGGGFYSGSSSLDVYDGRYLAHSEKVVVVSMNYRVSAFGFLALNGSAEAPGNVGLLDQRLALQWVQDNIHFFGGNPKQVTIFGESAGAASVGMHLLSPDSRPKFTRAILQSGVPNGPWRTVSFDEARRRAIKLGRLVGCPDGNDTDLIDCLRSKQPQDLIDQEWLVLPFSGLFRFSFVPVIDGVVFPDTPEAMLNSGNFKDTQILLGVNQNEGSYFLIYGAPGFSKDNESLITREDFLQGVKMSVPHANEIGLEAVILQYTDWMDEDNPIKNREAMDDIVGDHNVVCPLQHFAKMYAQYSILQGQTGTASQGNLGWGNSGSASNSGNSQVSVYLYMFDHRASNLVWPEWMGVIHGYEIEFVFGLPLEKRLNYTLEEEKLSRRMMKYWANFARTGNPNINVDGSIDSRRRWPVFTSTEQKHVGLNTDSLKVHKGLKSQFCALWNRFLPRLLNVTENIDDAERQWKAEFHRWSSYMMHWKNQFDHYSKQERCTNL

| SMILES | inhibition of macromolecule synthesis (RNA and protein synthesis) (L1210 leukemic cells) | Ki [1] [µM] | inhibition at 50 µM [2] [%] | IC50 ([3]; Mus musculus, L1210, 2 h, read-out: concentration that inhibits DNA synthesis by 50% (IC50)) [µM] | inhibition at 25 µM ([3]; Mus musculus, L1210, 25 μM, 90 min + 30 min pulse) [%] | inhibition at 50 µM ([3]; Mus musculus, L1210, 50 μM, 90 min + 30 min pulse) [%] | IC50 [4] [µM] | melting point [°C] | inhibition of DNA synthesis in L1210 cells ([3]; 25 μM, 90 min + 30 min pulse) | inhibition of DNA synthesis in L1210 cells ([3]; 50 μM, 90 min + 30 min pulse, 50 µM) |
| --- | --- | --- | --- | --- | --- | --- | --- | --- | --- | --- |
| COc1ccc(-c2cc3c(c(=O)o2)C=C2CCCCC2O3)cc1OC (stereo not shown) [Compound 3A, 3-(3,4-dimethoxyphenyl)-1H-5a,6,7,8,9-pentahydro-1-oxopyrano[4,3-b][1]benzopyran] | more potent inhibitor of macromolecule synthesis than the 3-pyridyl substituted tricyclic pyrone 2A | 23 ± 3.5 | 91 to 100 | ~8.5 | 62 | 79 to 91 | 63 | – | – | – |
| O=c1cc(O)cc(-c2cccnc2)o1 [Compound 5B, 4-hydroxy-6-(3-pyridyl)-2-pyrone] | – | – | – | – | – | – | – | 187 to 189 | no significant effects | no effect; also recorded: ineffective; also recorded: fail to inhibit DNA synthesis |
